Experimental data as given in US10501434B2, “Configurational stereoisomer of difethialone, composition and rodenticidal bait comprising same, and process for controlling target rodent pests” (priority 2015, dated 2019).

Type: in vivo, rat
Conditions: liver of rats which died between D9 and D10 after consuming the 11.8 ppm bait
Protocol: The acetonitrile solution containing difethialone is analysed by high-pressure liquid chromatography on a LUX® Cellulose-3 chiral column (Phenomenex, Le Pecq, France) (150×2 mm, particle size of 3 μm) as described in point A2) above.
The values, expressed as micrograms of laevorotatory enantiomer of said hetero-stereoisomer (“DFN-Hetero-laevo”) per gram of liver, are given in table 3 below.

## O=c1sc2ccccc2c(O)c1C1CC(c2ccc(-c3ccc(Br)cc3)cc2)Cc2ccccc21 (stereo not shown) [Total difethialone, 3-(4′-bromobiphenyl-4-yl)-1-(4-hydroxythiocoumarin-3-yl)-1,2,3,4-tetrahydronaphthalene]
  Hepatic content, Mean: 11.3 µg/g
